From patent US20210246202A1, “TREATMENTS RELATED TO GH/IGF-1 AXIS INHIBITION” (UNIVERSITY OF SOUTHERN CALIFORNIA, priority 2010, published 2021)

Columns and labels:
[1] = tested on: chemotherapy side effects; assay: Short term immunization with human GH before cyclophosphamide treatment (body weight, complete blood count); format: in vivo, mouse; conditions: cyclophosphamide i.p., 300 mg/kg, body weight and CBC 7-days after CP
Procedure: FIG. 14A provides plots of the body weight of mice with short term immunization (STI) with human GH (half-filled arrowheads) after cyclophosphamide treatment (cyclophosphamide (CP) i.p., 300 mg/kg, indicated by the solid arrowhead)(Sham means treated with buffer and no chemo);
FIG. 14B provides a histogram of the complete blood count (CBC) 7-days after CP treatment (Data are presented as percentage of pre-chemo value);
FIG. 14A provides plots of the body weight of mice with short term immunization (STI) with human GH (half-filled arrowheads) after cyclophosphamide treatment (cyclophosphamide (CP) i.p., 300 mg/kg, indicated by solid arrowheads). FIG. 14B provides a histogram of the complete blood count (CBC) 7-days after CP treatment (Data are presented as percentage of pre-chemo value).

[2] = Body weight of mice immunized with huGH; format: in vivo, mouse; conditions: 20 male and 20 female mice immunized with huGH
From the text: FIG. 13A provides a plot of body weight of mice immunized with human Growth Hormone (huGH) (20 male and 20 female) versus time.
This figure provides a plot of body weight of mice immunized with human Growth Hormone (huGH) (20 male and 20 female) versus time.

human GH = human GH (Homo sapiens, UniProt P01241); assay: Slot blot of anti-huGH activity in serum from mice immunized with huGH; format: in vivo, mouse; conditions: slot blot on immobilized human GH
human GH, sequence (P01241 27-217): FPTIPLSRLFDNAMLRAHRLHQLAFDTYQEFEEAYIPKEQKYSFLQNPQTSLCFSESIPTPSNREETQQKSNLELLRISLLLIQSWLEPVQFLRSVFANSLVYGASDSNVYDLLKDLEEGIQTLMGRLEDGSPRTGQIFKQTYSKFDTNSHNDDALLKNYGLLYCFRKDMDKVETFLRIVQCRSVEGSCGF

[3] = tested on: pancreatic carcinoma cells; conditions: Mol Cancer Ther May 2009 8:1095-1105; cited from earlier work
primary glial cells = assay: 24 hour LDH release from primary glial cells treated with IGFBP1; format: cell-based
Procedure: FIG. 17 provides a plot of the 24 hour lactate dehydrogenase (LDH) release from the treatment of primary glial cells with the IGF-I inhibitor insulin-like growth factor-binding protein 1 (IGFBP1) and with insulin-like growth factor-binding protein 2 (IGFBP2). […] IGFBP1 is a strong IGF-I inhibitor. Other IGFBPs can even increase IGF-I signaling.

## human Growth Hormone [huGH]
[1]
  effect against chemotherapy side effects: protective effect against chemotherapy side effects
[2]
  body weight of immunized mice: Lower body weight
Human GH
  immunized mice showing strong anti-huGH activity in serum: 34 out of 40

## AMG 479: a fully human anti-insulin-like growth factor receptor type I monoclonal antibody
[3]
  effect on growth and survival of pancreatic carcinoma cells: inhibits the growth and survival of pancreatic carcinoma cells

B1: insulin-like growth factor-binding protein 1 (protein, UniProt P08833 26-259, looked up)
Insulin-like growth …: APWQCAPCSAEKLALCPPVSASCSEVTRSAGCGCCPMCALPLGAACGVATARCARGLSCRALPGEQQPLHALTRGQGACVQESDASAPHAAEAGSPESPESTEITEEELLDNFHLMAPSEEDHSILWDAISTYDGSKALHVTNIKKWKEPCRIELYRVVESLAKAQETSGEEISKFYLPNCNKNGFYHSRQCETSMDGEAGLCWCVYPWNGKRIPGSPEIRGDPNCQIYFNVQN
Primary glial cells
  protection against oxidative damage (LDH release): protects them against oxidative damage
